{"source": "patent US20210244791A1", "about": "“APPLICATION OF PEDF-DERIVED SHORT PEPTIDES IN TENDON HEALING” (BRIM Biotechnology, Inc., priority 2018, published 2021)", "key": {"[1]": {"tested_on": "cultured tendon stem/progenitor cells (TSPC)", "conditions": "peptide added in culture medium; previous study; cited from earlier work"}, "Primary rabbit TSPC": {"tested_on": "Primary rabbit TSPC", "test": "TSPC cell proliferation assay (fluorometric kit)", "assay_type": "cell-based", "conditions": "10 μM peptide, low serum media, PDSP solvent (DMSO) set as 100%, mean±SE of three experiments", "protocol": "Primary rabbit TSPC were cultured to near-confluence in a 75T cell culture flask and then verified by immunostaining of a TSPC marker, nucleostemin (>98%; green color). Nuclei were stained with Hoechst 33258 (blue color) and visualized by an epifluorescence microscopy. The nucleostemine-positive TSPC were treated with 10 μM 29-mer or its variants for 24 h. The numbers of TSPC after 24-h expansion were detected with a cell proliferation assay kit (BioVision; catalog number: K307). The TSPC treated with PDSP solvent was set as 100%. Results are expressed as mean±SE of three independent experiments.\n(§1) Achilles tendons from New Zealand White rabbits (6-8 months old, 3.0-4.0 kg) were used in this study. Achilles tendons were washed two times with sterile phosphate-buffered saline (PBS) containing 50 μg/ml gentamicin. The tendon and tendon sheath were cut into small pieces (1-2 mm^3). Each 100 mg of fragment was then digested in a solution containing 3 mg/ml of type I collagenase and 4 mg/ml of dispase in 1 ml balance salt solution (BSS; Alcone) at 37° C. for 4 hours. The digested tissues were washed three times with PBS and collected by centrifugation (800 g for 10 min). The digested tissues were placed in tissue-culture plates (Falcon Labware; NJ, USA) and resuspended in high-glucose DMEM supplemented with 10% FBS and 50 μg/ml gentamycin, and maintained at 37° C. with 5% CO2. After 5 days, the medium was changed to remove the loosened tissue residues. Subsequently, tendon cells were incubated with 10% FBS medium for 2 days, and then cultured with a basal medium (2% FBS, 1% ITSE, 300 μg/ml L-glutamine, 1% antibiotic-antimicotic solutions) for further 10 days. Culture medium was changed every 3 days. For passage, tendon cells were harvested with 0.25% trypsin/EDTA, cell counting by haemocytometer, approximately 5×10^3 cells were seeded in each well of a 96-well cell culture plate or 2×10^5 cells were seeded in each well of a 6-well cell culture plate for 24 h. These expanded tendon cells were then treated with 10 μM 29-mer or its variants in fresh basal medium for further 24 h and subjected to cell proliferation assay and western blot analysis, respectively.\nCell Proliferation Assay Kit (Fluorometric) was purchased from BioVision (Catalog #: K307) and used to evaluate cell proliferation according to the manufacturer's recommendations. The fluorescence was read at 480 nm for excitation and 538 nm for emission on a SPECTRAmax GEMINI XS fluorescence microplate spectrophotometer (Molecular Devices, Sunnyvale, Calif., USA).\nRabbit TSPC isolation was described above. TSPC in low serum media were treated with 10 μM of one of the 29-mer variants for 24 h. Cell proliferation was examined by a cell proliferation kit based on a kit provided nuclear dye that specifically binds to nucleic acid in the cell and generates green fluorescence."}, "cyclin D1": {"tested_on": "cyclin D1", "test": "Western blot analysis of cyclin D1 expression in TSPC", "assay_type": "cell-based, rabbit", "conditions": "TSPC treated 24 h; compared with solvent-treated cells; normalized to β-actin", "protocol": "Primary rabbit TSPC were treated with 10NM 29-mer or its variants for 24 h. Representative blots (A) and densitometric analysis with the SD (B) from three independent experiments are shown. Cyclin D1 expression was normalized to ([…]. *P<0.01 vs. solvent-treated cells. ^#P<0.05 vs. 29-mer-treated cells.\nas §1\nCell lysis, SDS-PAGE, and antibodies used for immunoblotting were performed as described (Ho et al., 15-deoxy-Delta(12,14)-prostaglandin J2 induces vascular endothelial cell apoptosis through the sequential activation of MAPKS and p53. J Biol. Chem., 2008; 283(44): 30273-30288). The band intensity in immunoblot was evaluated with a Model GS-700 imaging densitometer (Bio-Rad Laboratories, Hercules, Calif.) and analyzed using Labworks 4.0 software.\nHowever, the 29-mer effect on cyclin D1 protein induction was almost abolished by alanine/glycine replacement at residue S93, A96, Q98, 1103, 1104 and R106, respectively (1.3±0.1, 1.5±0.3, 1.3±0.1, 0.9±0.1, 1.3±0.2, and 1.0±0.3). […] The data also imply that the PDSP at positions Ser93, Ala96, Gln98, Ile103, Ile104, and Arg106 are important for sustaining the PDSP effect on induction of TSPC proliferation."}, "tendon rupture": {"tested_on": "tendon rupture", "conditions": "rat model; previous study; cited from earlier work"}}, "data": [{"sequence": "SLGAEQRTESIIHRALYYDLISSPDIHGT (listed as Homo sapiens) [29-mer, PEDF-derived short peptide, human PEDF residues 93-121]", "values": [{"measurement": "induction of cultured TSPC proliferation", "setting": "[1]", "value": "able to induce cultured tendon stem/progenitor cells (TSPC) proliferation"}, {"measurement": "TSPC proliferation (numbers of TSPC after 24-h expansion)", "setting": "Primary rabbit TSPC", "value": "135±6.1", "unit": "%"}, {"measurement": "induction of the cyclin D1 protein", "setting": "cyclin D1", "value": "2.9±0.5", "unit": "fold"}, {"measurement": "healing of tendon rupture", "setting": "tendon rupture", "value": "facilitated healing of tendon rupture"}]}]}
